Measured values as given in US6706663B2, “Herbicidal 3-heterocyclic substituted benzisothiazole and benzisoxazole compounds” (Wyeth, priority 2000, dated 2004).

How the values were obtained:
ORYSAT (Rice, Tebonnet) [1] = experiment: Postemergence herbicidal evaluation; assay type: in vivo, Oryza sativa, (L.) Tebonnet; conditions: postemergence
In short: (§1)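 Seedlings grown for about two weeks were sprayed postemergence and then kept under standard greenhouse care. Injury was rated visually 4–5 weeks after treatment on a 0–9 scale against untreated controls, and ratings from repeat tests were averaged.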

[2] = tested on: ABUTH (Abutilon theophrasti); experiment: Postemergence herbicidal evaluation; assay type: in vivo, Medic.; conditions: postemergence
In short: as §1

GALAP (Galium aparine) = experiment: Postemergence herbicidal evaluation; assay type: in vivo; conditions: postemergence
In short: as §1

[3] = tested on: CASOB (Cassia obtusifolia); experiment: Postemergence herbicidal evaluation; assay type: in vivo, L.; conditions: postemergence
In short: as §1

[4] = tested on: AMBEL (Ambrosia artemisifolia); experiment: Postemergence herbicidal evaluation; assay type: in vivo, L.; conditions: postemergence
In short: as §1

[5] = tested on: CHEAL (Chenopodium album); experiment: Postemergence herbicidal evaluation; assay type: in vivo, L.; conditions: postemergence
In short: as §1

CYPIR (Cyperus iria) = experiment: Flooded paddy, preemergence weed control; assay type: in vivo; conditions: rated 3-4 weeks after treatment, 0-9 rating scale
In short: (§2)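 Visual 0–9 ratings versus controls scored stand, vigor, malformation, size, chlorosis and overall appearance. Plants grew from seeds or propagating organs sown 0.5 cm deep in silt loam, with water held 1.5–3 cm above the soil for the whole test under greenhouse care.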

ORYSAT (Rice, Tebonnet) [6] = experiment: Preemergence herbicidal evaluation; assay type: in vivo, Oryza sativa, (L.) Tebonnet; conditions: rated 4-5 weeks after treatment
[7] = tested on: CYPSE (Cyperus serotinus); experiment: Flooded paddy, preemergence weed control; assay type: in vivo, Rottb.; conditions: rated 3-4 weeks after treatment, 0-9 rating scale
In short: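 Seeds or propagules were planted 0.5 cm deep in silt loam and flooded to 1.5–3 cm. Compounds in 50/50 v/v aqueous/acetone were pipetted into the flood water at about 0.0080 to 0.1250 kg/ha. After 3–4 weeks in the greenhouse, effect was rated visually on a 0–9 scale versus untreated control.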

[8] = tested on: CASOB (Cassia obtusifolia); experiment: Preemergence herbicidal evaluation; assay type: in vivo, L.; conditions: rated 4-5 weeks after treatment
In short: (§3)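 Greenhouse preemergence test: freshly planted cups were sprayed once with an aqueous acetone solution of compound. Injury was judged visually on a 0–9 scale relative to a control, four to five weeks later.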

[9] = tested on: AMBEL (Ambrosia artemisifolia); experiment: Preemergence herbicidal evaluation; assay type: in vivo, L.; conditions: rated 4-5 weeks after treatment
In short: as §3

[10] = tested on: CHEAL (Chenopodium album); experiment: Preemergence herbicidal evaluation; assay type: in vivo, L.; conditions: rated 4-5 weeks after treatment
In short: as §3

[11] = tested on: IPOHE (Ipomoea hederacea); experiment: Postemergence herbicidal evaluation; assay type: in vivo, (L.) Jacq.; conditions: postemergence
In short: as §1

[12] = tested on: SAGPY (Sagittaria pygmaea); experiment: Flooded paddy, preemergence weed control; assay type: in vivo, L.; conditions: rated 3-4 weeks after treatment, 0-9 rating scale
In short: as §2

[13] = tested on: TRZAWR (Wheat, Winter, cv Riband); experiment: Postemergence herbicidal evaluation; assay type: in vivo, Triticum aestivum; conditions: postemergence
In short: as §1

[14] = tested on: ECHCG (Echinochloa crus-galli); experiment: Preemergence herbicidal evaluation; assay type: in vivo, (L.) Beau; conditions: rated 4-5 weeks after treatment
In short: as §3

SETVI (Setaria viridis) [15] = experiment: Preemergence herbicidal evaluation; assay type: in vivo, (L.) Beau; conditions: rated 4-5 weeks after treatment
In short: as §3

[16] = tested on: MOOVA (Monochoria vaginalis); experiment: Flooded paddy, preemergence weed control; assay type: in vivo, Presl.; conditions: rated 3-4 weeks after treatment, 0-9 rating scale
In short: as §2

SETVI (Setaria viridis) [17] = experiment: Postemergence herbicidal evaluation; assay type: in vivo, (L.) Beau; conditions: postemergence
In short: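 First, seedlings are raised in flats for about two weeks. Next, compound dispersed in 50/50 acetone/water with 0.5% TWEEN 20 is sprayed at 40 psi to deliver about 0.0040–1.000 kg/ha. Plants are then maintained in the greenhouse and rated 0-9 after four to five weeks.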

Cn1c(C(F)(F)F)cc(=O)n(-c2ccc3snc(-c4sccc4Cl)c3c2)c1=O [Compound 52, 3-[3-(3-chloro-2-thienyl)-1,2-benzisothiazol-5-yl]-1-methyl-6-(trifluoromethyl)uracil]
ORYSAT herbicidal rating (ORYSAT (Rice, Tebonnet) [1]; rate 0.0320 kg/ha): 3.0 | ORYSAT herbicidal rating (ORYSAT (Rice, Tebonnet) [1]; rate 0.0620 kg/ha): 3.0 | ORYSAT herbicidal rating (ORYSAT (Rice, Tebonnet) [1]; rate 0.1250 kg/ha): 4.0 | ABUTH herbicidal rating ([2]; rate 0.0320 kg/ha): 9.0 | ABUTH herbicidal rating ([2]; rate 0.0620 kg/ha): 9.0 | ABUTH herbicidal rating ([2]; rate 0.1250 kg/ha): 9.0 | GALAP herbicidal rating (GALAP (Galium aparine); rate 0.0320 kg/ha): 5.0 | GALAP herbicidal rating (GALAP (Galium aparine); rate 0.0620 kg/ha): 3.0 | GALAP herbicidal rating (GALAP (Galium aparine); rate 0.1250 kg/ha): 7.0 | CASOB herbicidal rating ([3]; rate 0.0320 kg/ha): 1.0 | CASOB herbicidal rating ([3]; rate 0.0620 kg/ha): 7.0 | CASOB herbicidal rating ([3]; rate 0.1250 kg/ha): 8.0 | AMBEL herbicidal rating ([4]; rate 0.0320 kg/ha): 9.0 | AMBEL herbicidal rating ([4]; rate 0.0620 kg/ha): 9.0 | AMBEL herbicidal rating ([4]; rate 0.1250 kg/ha): 9.0 | CHEAL herbicidal rating ([5]; rate 0.0320 kg/ha): 5.0 | CHEAL herbicidal rating ([5]; rate 0.0620 kg/ha): 5.0 | CHEAL herbicidal rating ([5]; rate 0.1250 kg/ha): 9.0 | herbicidal rating, CYPIR (CYPIR (Cyperus iria); rate 0.0080 kg/ha): 9.0 | herbicidal rating, CYPIR (CYPIR (Cyperus iria); rate 0.0320 kg/ha): 9.0 | herbicidal rating, CYPIR (CYPIR (Cyperus iria); rate 0.1250 kg/ha): 9.0 | Preemergence herbicidal rating ORYSAT (ORYSAT (Rice, Tebonnet) [6]; Rate 0.0620 kg/ha): 1.0 | Preemergence herbicidal rating ORYSAT (ORYSAT (Rice, Tebonnet) [6]; Rate 0.1250 kg/ha): 1.5 | Preemergence herbicidal rating ORYSAT (ORYSAT (Rice, Tebonnet) [6]; Rate 0.2500 kg/ha): 3.5 | herbicidal rating, CYPSE ([7]; rate 0.0320 kg/ha): 9.0 | herbicidal rating, CYPSE ([7]; rate 0.1250 kg/ha): 9.0 | Preemergence herbicidal rating CASOB ([8]; Rate 0.0620 kg/ha): 1.0 | Preemergence herbicidal rating CASOB ([8]; Rate 0.1250 kg/ha): 1.0 | Preemergence herbicidal rating CASOB ([8]; Rate 0.2500 kg/ha): 4.0 | Preemergence herbicidal rating AMBEL ([9]; Rate 0.0620 kg/ha): 3.5 | Preemergence herbicidal rating AMBEL ([9]; Rate 0.1250 kg/ha): 8.5 | Preemergence herbicidal rating AMBEL ([9]; Rate 0.2500 kg/ha): 9.0 | Preemergence herbicidal rating CHEAL ([10]; Rate 0.0620 kg/ha): 9.0 | Preemergence herbicidal rating CHEAL ([10]; Rate 0.1250 kg/ha): 9.0 | Preemergence herbicidal rating CHEAL ([10]; Rate 0.2500 kg/ha): 9.0 | IPOHE herbicidal rating ([11]; rate 0.0320 kg/ha): 9.0 | IPOHE herbicidal rating ([11]; rate 0.0620 kg/ha): 9.0 | IPOHE herbicidal rating ([11]; rate 0.1250 kg/ha): 9.0 | herbicidal rating, SAGPY ([12]; rate 0.0080 kg/ha): 0.0 | herbicidal rating, SAGPY ([12]; rate 0.0320 kg/ha): 3.7 | herbicidal rating, SAGPY ([12]; rate 0.1250 kg/ha): 7.7 | TRZAWR herbicidal rating ([13]; rate 0.0320 kg/ha): 4.0 | TRZAWR herbicidal rating ([13]; rate 0.0620 kg/ha): 4.0 | TRZAWR herbicidal rating ([13]; rate 0.1250 kg/ha): 5.0 | Preemergence herbicidal rating ECHCG ([14]; Rate 0.0620 kg/ha): 7.5 | Preemergence herbicidal rating ECHCG ([14]; Rate 0.1250 kg/ha): 8.5 | Preemergence herbicidal rating ECHCG ([14]; Rate 0.2500 kg/ha): 9.0 | Preemergence herbicidal rating SETVI (SETVI (Setaria viridis) [15]; Rate 0.0620 kg/ha): 9.0 | Preemergence herbicidal rating SETVI (SETVI (Setaria viridis) [15]; Rate 0.1250 kg/ha): 9.0 | Preemergence herbicidal rating SETVI (SETVI (Setaria viridis) [15]; Rate 0.2500 kg/ha): 9.0 | herbicidal rating, MOOVA ([16]; rate 0.0080 kg/ha): 9.0 | herbicidal rating, MOOVA ([16]; rate 0.0320 kg/ha): 9.0 | herbicidal rating, MOOVA ([16]; rate 0.1250 kg/ha): 9.0 | SETVI herbicidal rating (SETVI (Setaria viridis) [17]; rate 0.0320 kg/ha): 9.0 | SETVI herbicidal rating (SETVI (Setaria viridis) [17]; rate 0.0620 kg/ha): 9.0 | SETVI herbicidal rating (SETVI (Setaria viridis) [17]; rate 0.1250 kg/ha): 9.0

Cn1c(C(F)(F)F)cc(=O)n(-c2ccc3snc(C4(C)OCCO4)c3c2)c1=O [Compound 54, 1-methyl-3-[3-(2-methyl-1,3-dioxolan-2-yl)-1,2-benzisothiazol-5-yl]-6-(trifluoromethyl)uracil]
ORYSAT herbicidal rating (ORYSAT (Rice, Tebonnet) [1]; rate 0.0320 kg/ha): 5.0 | ORYSAT herbicidal rating (ORYSAT (Rice, Tebonnet) [1]; rate 0.0620 kg/ha): 6.5 | ORYSAT herbicidal rating (ORYSAT (Rice, Tebonnet) [1]; rate 0.1250 kg/ha): 7.0 | ABUTH herbicidal rating ([2]; rate 0.0320 kg/ha): 9.0 | ABUTH herbicidal rating ([2]; rate 0.0620 kg/ha): 9.0 | ABUTH herbicidal rating ([2]; rate 0.1250 kg/ha): 9.0 | GALAP herbicidal rating (GALAP (Galium aparine); rate 0.0320 kg/ha): 5.0 | GALAP herbicidal rating (GALAP (Galium aparine); rate 0.0620 kg/ha): 9.0 | GALAP herbicidal rating (GALAP (Galium aparine); rate 0.1250 kg/ha): 9.0 | CASOB herbicidal rating ([3]; rate 0.0320 kg/ha): 2.0 | CASOB herbicidal rating ([3]; rate 0.0620 kg/ha): 9.0 | CASOB herbicidal rating ([3]; rate 0.1250 kg/ha): 9.0 | AMBEL herbicidal rating ([4]; rate 0.0320 kg/ha): 9.0 | AMBEL herbicidal rating ([4]; rate 0.0620 kg/ha): 9.0 | AMBEL herbicidal rating ([4]; rate 0.1250 kg/ha): 9.0 | CHEAL herbicidal rating ([5]; rate 0.0320 kg/ha): 5.0 | CHEAL herbicidal rating ([5]; rate 0.0620 kg/ha): 9.0 | CHEAL herbicidal rating ([5]; rate 0.1250 kg/ha): 9.0 | herbicidal rating, CYPIR (CYPIR (Cyperus iria); rate 0.0080 kg/ha): 0.0 | herbicidal rating, CYPIR (CYPIR (Cyperus iria); rate 0.0320 kg/ha): 7.5 | herbicidal rating, CYPIR (CYPIR (Cyperus iria); rate 0.1250 kg/ha): 9.0 | Preemergence herbicidal rating ORYSAT (ORYSAT (Rice, Tebonnet) [6]; Rate 0.0620 kg/ha): 9.0 | Preemergence herbicidal rating ORYSAT (ORYSAT (Rice, Tebonnet) [6]; Rate 0.1250 kg/ha): 9.0 | Preemergence herbicidal rating ORYSAT (ORYSAT (Rice, Tebonnet) [6]; Rate 0.2500 kg/ha): 9.0 | herbicidal rating, CYPSE ([7]; rate 0.0320 kg/ha): 9.0 | herbicidal rating, CYPSE ([7]; rate 0.1250 kg/ha): 9.0 | Preemergence herbicidal rating CASOB ([8]; Rate 0.0620 kg/ha): 9.0 | Preemergence herbicidal rating CASOB ([8]; Rate 0.1250 kg/ha): 9.0 | Preemergence herbicidal rating CASOB ([8]; Rate 0.2500 kg/ha): 9.0 | Preemergence herbicidal rating AMBEL ([9]; Rate 0.0620 kg/ha): 9.0 | Preemergence herbicidal rating AMBEL ([9]; Rate 0.1250 kg/ha): 9.0 | Preemergence herbicidal rating AMBEL ([9]; Rate 0.2500 kg/ha): 9.0 | Preemergence herbicidal rating CHEAL ([10]; Rate 0.0620 kg/ha): 9.0 | Preemergence herbicidal rating CHEAL ([10]; Rate 0.1250 kg/ha): 9.0 | Preemergence herbicidal rating CHEAL ([10]; Rate 0.2500 kg/ha): 9.0 | IPOHE herbicidal rating ([11]; rate 0.0320 kg/ha): 9.0 | IPOHE herbicidal rating ([11]; rate 0.0620 kg/ha): 9.0 | IPOHE herbicidal rating ([11]; rate 0.1250 kg/ha): 9.0 | herbicidal rating, SAGPY ([12]; rate 0.0080 kg/ha): 0.0 | herbicidal rating, SAGPY ([12]; rate 0.0320 kg/ha): 7.0 | herbicidal rating, SAGPY ([12]; rate 0.1250 kg/ha): 9.0 | TRZAWR herbicidal rating ([13]; rate 0.0320 kg/ha): 5.0 | TRZAWR herbicidal rating ([13]; rate 0.0620 kg/ha): 6.5 | TRZAWR herbicidal rating ([13]; rate 0.1250 kg/ha): 7.5 | Preemergence herbicidal rating ECHCG ([14]; Rate 0.0620 kg/ha): 9.0 | Preemergence herbicidal rating ECHCG ([14]; Rate 0.1250 kg/ha): 9.0 | Preemergence herbicidal rating ECHCG ([14]; Rate 0.2500 kg/ha): 9.0 | Preemergence herbicidal rating SETVI (SETVI (Setaria viridis) [15]; Rate 0.0620 kg/ha): 9.0 | Preemergence herbicidal rating SETVI (SETVI (Setaria viridis) [15]; Rate 0.1250 kg/ha): 9.0 | Preemergence herbicidal rating SETVI (SETVI (Setaria viridis) [15]; Rate 0.2500 kg/ha): 9.0 | herbicidal rating, MOOVA ([16]; rate 0.0320 kg/ha): 9.0 | herbicidal rating, MOOVA ([16]; rate 0.1250 kg/ha): 9.0 | SETVI herbicidal rating (SETVI (Setaria viridis) [17]; rate 0.0320 kg/ha): 3.0 | SETVI herbicidal rating (SETVI (Setaria viridis) [17]; rate 0.0620 kg/ha): 9.0 | SETVI herbicidal rating (SETVI (Setaria viridis) [17]; rate 0.1250 kg/ha): 8.0
